Results as given in patent US20260306527A1, “PRMT INHIBITOR COMPOUNDS AND THE USES THEREOF” (Purdue Research Foundation, priority 2023, published 2026).
Read-outs that look alike come from different tables or passages of the source.

How the values were obtained:
Assay type in all cases: biochemical
PRMT1 = biological target: T1, PRMT1 (Homo sapiens, UniProt Q99873); experiment: SAHH-coupled fluorescence assay, inhibition of PRMT1
T1 construct: made in house
Procedure: (§1) A fluorescence-based SAHH-coupled assay was applied to study the inhibition activity of all synthesized compounds on PRMT 1 and 3.
(§2) The PRMT1 methylation assay was performed under the following conditions in a final well volume of 100 μL: 2.5 mM HEPES (pH=7.0), 25 mM NaCl, 25 μM EDTA, 50 μM TCEP, 0.01% Triton X-100, 5 μM SAHH, 0.1 μM PRMT1, 10 μM AdoMet, and 10 μM ThioGlo4. […] The fluorescence signal was monitored on a BMG CLARIOstar microplate reader with excitation at 400 nm and emission at 465 nm for 15 min. Data were processed using GraphPad Prism software 8.0.
(§3) Next, the inhibition activity of the library was investigated for five PRMT members from type I PRMTs.
as §2, with “A fluorescence-based SAHH-coupled assay was applied to determine the inhibition activity of all synthesized compounds on PRMT 1 and 3. The PRMT1” for “The PRMT1”, “software 8.0. All experiments were performed in duplicate.” for “software 8.0.”

PRMT4 = biological target: T2, PRMT4 (Homo sapiens, UniProt Q86X55); experiment: radioactive assay (Reaction Biology Corp.), inhibition of PRMT4
T2 sequence (Q86X55 1-608): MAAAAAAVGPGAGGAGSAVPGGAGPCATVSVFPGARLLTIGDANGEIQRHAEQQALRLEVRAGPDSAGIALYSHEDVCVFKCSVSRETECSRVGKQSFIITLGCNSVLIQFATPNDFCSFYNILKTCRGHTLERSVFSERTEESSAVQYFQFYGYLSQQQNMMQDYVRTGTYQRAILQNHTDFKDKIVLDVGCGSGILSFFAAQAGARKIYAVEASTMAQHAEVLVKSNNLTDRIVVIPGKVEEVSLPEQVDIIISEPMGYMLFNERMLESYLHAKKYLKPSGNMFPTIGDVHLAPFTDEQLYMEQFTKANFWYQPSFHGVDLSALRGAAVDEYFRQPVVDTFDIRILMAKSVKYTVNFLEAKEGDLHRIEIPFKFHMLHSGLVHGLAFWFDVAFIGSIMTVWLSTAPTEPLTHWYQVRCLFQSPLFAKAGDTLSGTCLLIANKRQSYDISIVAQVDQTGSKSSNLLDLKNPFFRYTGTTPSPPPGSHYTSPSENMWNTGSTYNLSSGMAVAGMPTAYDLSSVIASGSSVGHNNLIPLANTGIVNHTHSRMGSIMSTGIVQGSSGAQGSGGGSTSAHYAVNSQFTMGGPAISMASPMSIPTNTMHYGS
Procedure: as §3
(§4) The PRMT 4, 6 and 8 methylation assays were performed by Reaction Biology corp.

PRMT6 = PRMT6 (Homo sapiens, UniProt Q96LA8); experiment: radioactive assay (Reaction Biology Corp.), inhibition of PRMT6
Sequence of PRMT6 (Q96LA8 whole entry, species assumed): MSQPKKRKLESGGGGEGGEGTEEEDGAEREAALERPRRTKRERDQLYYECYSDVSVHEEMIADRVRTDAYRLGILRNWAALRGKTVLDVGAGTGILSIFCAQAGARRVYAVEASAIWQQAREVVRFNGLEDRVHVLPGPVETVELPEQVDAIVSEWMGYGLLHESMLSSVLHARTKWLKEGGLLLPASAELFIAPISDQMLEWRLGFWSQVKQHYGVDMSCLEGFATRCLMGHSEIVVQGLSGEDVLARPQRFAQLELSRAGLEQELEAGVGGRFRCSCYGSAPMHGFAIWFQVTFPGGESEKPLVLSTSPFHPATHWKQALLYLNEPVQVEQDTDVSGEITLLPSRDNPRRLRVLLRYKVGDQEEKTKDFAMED
Procedure: as §3, §4

PRMT8 = PRMT8 (Homo sapiens, UniProt Q9NR22); experiment: radioactive assay (Reaction Biology Corp.), inhibition of PRMT8
Sequence of PRMT8 (Q9NR22 whole entry, species assumed): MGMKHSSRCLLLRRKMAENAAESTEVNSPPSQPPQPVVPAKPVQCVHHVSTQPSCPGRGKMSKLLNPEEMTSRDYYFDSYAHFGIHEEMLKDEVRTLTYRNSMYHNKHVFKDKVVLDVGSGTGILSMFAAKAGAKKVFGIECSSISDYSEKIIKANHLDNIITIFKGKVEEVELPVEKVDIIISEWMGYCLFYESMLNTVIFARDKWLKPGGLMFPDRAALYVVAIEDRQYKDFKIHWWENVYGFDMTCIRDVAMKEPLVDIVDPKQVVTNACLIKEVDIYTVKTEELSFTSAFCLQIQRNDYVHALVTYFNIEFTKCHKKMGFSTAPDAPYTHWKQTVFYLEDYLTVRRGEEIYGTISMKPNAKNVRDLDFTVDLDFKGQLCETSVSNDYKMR
Procedure: as §3, §4

PRMT3 = PRMT3 (Homo sapiens, UniProt O60678); experiment: SAHH-coupled fluorescence assay, inhibition of PRMT3; design: PRMT3 (residues 211-531) was cloned into the pET28a-MHL expression vector; tag of the pET28a-MHL vector (not described); made in house; host or cells: Escherichia coli BL21(DE3)
Sequence of PRMT3 (O60678 211-531): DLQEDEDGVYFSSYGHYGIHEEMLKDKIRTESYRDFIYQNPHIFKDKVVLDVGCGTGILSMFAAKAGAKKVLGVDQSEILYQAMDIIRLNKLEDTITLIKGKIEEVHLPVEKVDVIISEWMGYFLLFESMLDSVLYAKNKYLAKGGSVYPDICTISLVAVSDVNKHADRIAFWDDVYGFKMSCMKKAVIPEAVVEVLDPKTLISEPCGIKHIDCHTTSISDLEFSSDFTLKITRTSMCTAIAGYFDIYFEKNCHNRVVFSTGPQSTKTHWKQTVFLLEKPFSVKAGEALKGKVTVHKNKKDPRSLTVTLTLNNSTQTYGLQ
Procedure: as §1
(§5) The PRMT3 methylation assay was performed under the following conditions in a final well volume of 100 μL: 20 mM Tris (pH=7.5), 0.01% Triton X-100, 5 μM SAHH, 0.25 μM PRMT3, 30 μM AdoMet, and 15 μM ThioGlo4. […] Fluorescence was monitored on a BMG CLARIOstar microplate reader with excitation 380 nm and emission 505 nm. Data were processed by using GraphPad Prism software 8.0. All experiments were performed in duplicate.
as §3
as §5, with “8.0.” for “8.0. All experiments were performed in duplicate.”

T1 sequence (Q99873 whole entry, species assumed): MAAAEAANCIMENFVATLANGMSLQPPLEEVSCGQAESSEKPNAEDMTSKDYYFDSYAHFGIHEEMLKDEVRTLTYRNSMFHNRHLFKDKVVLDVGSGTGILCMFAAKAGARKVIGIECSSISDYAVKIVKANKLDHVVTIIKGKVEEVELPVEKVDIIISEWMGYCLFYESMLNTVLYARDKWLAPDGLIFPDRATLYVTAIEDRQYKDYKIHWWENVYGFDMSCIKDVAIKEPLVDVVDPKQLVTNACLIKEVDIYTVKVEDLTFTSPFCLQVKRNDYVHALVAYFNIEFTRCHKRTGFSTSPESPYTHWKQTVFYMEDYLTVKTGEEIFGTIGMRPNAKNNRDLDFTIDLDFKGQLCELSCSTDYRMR

inhibition at 10 µM (PRMT1)	IC50 (PRMT1; read-out: IC50 FOR PRMT1)	inhibition at 10 µM (PRMT4)	inhibition at 10 µM (PRMT6)	inhibition at 10 µM (PRMT8)	inhibition at 10 µM (PRMT3)	IC50 (PRMT1; read-out: IC50[μM] | PRMT1)	PRMT4 inhibition (PRMT4)	PRMT1 inhibition (PRMT1)	SMILES
80%	0.59 ± 0.073 µM	44%	90%	85%	7%	–	–	–	N=C(NCCCSC[C@H]1O[C@@H](n2cnc3c(NCCCc4ccccc4)ncnc32)[C@H](O)[C@@H]1O)NCC1CCC1 [Compound 1-89]
64%	0.59 ± 0.073 µM	54%	84%	55%	10%	–	–	–	N=C(NCCCO)NCCCSC[C@H]1O[C@@H](n2cnc3c(NCCCc4ccccc4)ncnc32)[C@H](O)[C@@H]1O [Compound 1-92]
73%	–	–	75%	66%	1%	3 ± 0.16 µM	–	–	N=C(NCCSC[C@H]1O[C@@H](n2cnc3c(N)ncnc32)[C@H](O)[C@@H]1O)Nc1ccccc1 [Compound 5b]
95%	–	97%	98%	97%	61%	0.21 ± 0.0066 µM	–	–	N=C(NCCCSC[C@H]1O[C@@H](n2cnc3c(N)ncnc32)[C@H](O)[C@@H]1O)NCc1ccccc1 [Compound 5e]
95%	–	100%	95%	98%	46%	–	–	–	N=C(NCCCSC[C@H]1O[C@@H](n2cnc3c(N)ncnc32)[C@H](O)[C@@H]1O)Nc1cccc(-c2ccoc2)c1 [Compound 6i]
93%	–	100%	98%	100%	0%	–	–	–	N=C(NCCCSC[C@H]1O[C@@H](n2cnc3c(N)ncnc32)[C@H](O)[C@@H]1O)Nc1cccc(-c2cccc([N+](=O)[O-])c2)c1 [Compound 6p]
99%	–	100%	98%	100%	60%	–	–	–	N=C(NCCCSC[C@H]1O[C@@H](n2cnc3c(N)ncnc32)[C@H](O)[C@@H]1O)Nc1cccc(-c2n[nH]cc2C(F)(F)F)c1 [Compound 6q]
13%	–	49%	7%	-4%	5%	–	–	–	Nc1ncnc2c1ncn2[C@@H]1O[C@H](CSCCNC(=O)NCCCc2ccccc2)[C@@H](O)[C@H]1O [Compound 7b, 1-(2-((((2S,3S,4R,5R)-5-(6-amino-9H-purin-9-yl)-3,4-dihydroxytetrahydrofuran-2-yl)methyl)thio)ethyl)-3-(3-phenylpropyl)urea]
8%	–	53%	22%	-1%	6%	–	–	–	Nc1ncnc2c1ncn2[C@@H]1O[C@H](CSCCNC(=O)NCCc2ccccc2)[C@@H](O)[C@H]1O [Compound 7c, 1-(2-((((2S,3S,4R,5R)-5-(6-amino-9H-purin-9-yl)-3,4-dihydroxytetrahydrofuran-2-yl)methyl)thio)ethyl)-3-phenethylurea]
6%	–	30%	9%	-2%	8%	–	–	–	Nc1ncnc2c1ncn2[C@@H]1O[C@H](CSCCNC(=O)NCc2ccc3cnccc3c2)[C@@H](O)[C@H]1O [Compound 7e]
10%	–	27%	3%	14%	4%	–	–	–	CCNC(=O)NCCSC[C@H]1O[C@@H](n2cnc3c(N)ncnc32)[C@H](O)[C@@H]1O [Compound 7g, 1-(2-((((2S,3S,4R,5R)-5-(6-amino-9H-purin-9-yl)-3,4-dihydroxytetrahydrofuran-2-yl)methyl)thio)ethyl)-3-ethylurea]
6%	–	34%	-12%	-10%	2%	–	–	–	Nc1ncnc2c1ncn2[C@@H]1O[C@H](CSCCNC(=O)NC2CCCCC2)[C@@H](O)[C@H]1O [Compound 7i, 1-(2-((((2S,3S,4R,5R)-5-(6-amino-9H-purin-9-yl)-3,4-dihydroxytetrahydrofuran-2-yl)methyl)thio)ethyl)-3-cyclohexylurea]
10%	–	81%	11%	13%	55%	–	–	–	Nc1ncnc2c1ncn2[C@@H]1O[C@H](CSCCNC(=O)Nc2ccccc2Br)[C@@H](O)[C@H]1O [Compound 7m]
5%	–	42%	89%	7%	5%	–	–	–	Nc1ncnc2c1ncn2[C@@H]1O[C@H](CSCCCNC(=O)NCc2ccc3c(c2)OCO3)[C@@H](O)[C@H]1O [Compound 7o]
18%	–	62%	-6%	16%	5%	–	–	–	Nc1ncnc2c1ncn2[C@@H]1O[C@H](CSCCCNC(=O)NCCCc2ccccc2)[C@@H](O)[C@H]1O [Compound 7q]
14%	–	47%	49%	22%	6%	–	–	–	Nc1ncnc2c1ncn2[C@@H]1O[C@H](CSCCCNC(=O)NCCc2ccccc2)[C@@H](O)[C@H]1O [Compound 7r]
23%	–	58%	49%	-12%	9%	–	–	–	N=C(NCCCSC[C@H]1O[C@@H](n2cnc3c(N)ncnc32)[C@H](O)[C@@H]1O)Nc1cccc(F)c1 [Compound 7s]
13%	–	40%	72%	0%	3%	–	–	–	Nc1ccc(-c2ccc(CNC(=O)NCCSC[C@H]3O[C@@H](n4cnc5c(N)ncnc54)[C@H](O)[C@@H]3O)cc2)cc1 [Compound 8a]
11%	–	–	58%	47%	8%	–	–	–	Nc1ncnc2c1ncn2[C@@H]1O[C@H](CSCCNCc2cccc(Br)c2)[C@@H](O)[C@H]1O [Compound 9a]
–	–	–	–	–	–	–	selective and potent PRMT4 inhibitor	–	N=C(NCCCN(CCNC(=O)NCc1ccccc1)C[C@H]1O[C@@H](n2cnc3c(N)ncnc32)[C@H](O)[C@@H]1O)NC1CCCC1 [YD1289]
–	–	–	–	–	–	–	potent and selective PRMT4 inhibitors	–	Nc1ncnc2c1ncn2[C@@H]1O[C@H](CN(CCCNCc2cccc(-c3ccc(Cl)cc3)c2)CCNC(=O)NCc2ccccc2)[C@@H](O)[C@H]1O [YD1305]
–	–	–	–	–	–	–	potent and selective PRMT4 inhibitors	–	Nc1ncnc2c1ncn2[C@@H]1O[C@H](CN(CCCNCc2cccc(Br)c2)CCNC(=O)NCc2ccccc2)[C@@H](O)[C@H]1O [YD1349]
–	–	–	–	–	–	–	–	inhibitory effect of YD1375 on PRMT1	N=C(NCCCSCC1CC(n2ccc3c(NCCCc4ccccc4)ncnc32)C(O)C1O)Nc1cccc(Br)c1 (centres unmarked) [YD1375]
